# Columns and labels:
# [1] = system: human lung cancer xenograft MV522; test: Human lung cancer xenograft in nude mice; type: in vivo; details: ip, epothilone D twice a day for 7 days (6 to 14 mg/kg/day), carboplatin daily for 5 days (10 to 40 mg/kg/day), dose dependent
# Description: (§1) The drug combination was also tested in nude mice bearing the human lung cancer xenografts MV522 and SK-MES. Fragments of human tumor carcinomas harvested from subcutaneously growing tumors in nude mice hosts were implanted subcutaneously. When tumors were approximately 60-75 mg in size (10-14 days after implantation), mice were pair matched into treatment and control groups. Epothilone D was given intraperito-neally twice a day for 7 days (6 to 14 mg/kg/day), carboplatin intraperitoneally every daily for 5 days (10 to 40 mg/kg/day), various combinations of epothilone D (first) and carboplatin (second), or vehicle control.
# [2] = system: human lung cancer xenograft SK-MES; test: Human lung cancer xenograft in nude mice; type: in vivo; details: ip, epothilone D twice a day for 7 days (6 to 14 mg/kg/day), carboplatin daily for 5 days (10 to 40 mg/kg/day), dose dependent
# Description: as §1
# [3] = system: human NSCLC cell lines A549, H23, H226, H358, H460, and H522; test: MTS cell viability assay across the NSCLC panel, single agents and constant-ratio combination; type: cell-based; details: single agent, 1 pM to 10 μM, 3 days; carboplatin judged at 10,000 nM
# Description: (§2) The human NSCLC (non-small cell lung cancer) cell lines A549, H23, H226, H358, H460, and H522 were seeded in 96 well plates (5000 cells/well); after overnight incubation, the cells were treated with epothilone D or carboplatin alone or epothilone D and carboplatin in combination. Once the IC50 value of each drug was obtained, the combined drug treatment was designed at constant ratios of the two drugs and the treatment schedule varied: either epothilone D or carboplatin was administered first with the second drug added 24 hours later. Cell viability was assayed by the MTS assay. […] Cells were treated with epothilone D or carboplatin at varying concentrations, ranging from 1 pM to 10 μM, for 3 days. Cell viability was determined using the using the MTS assay (Promega). IC50 is defined as the concentration of drug required to inhibit cell growth by 50%.
# H358 = test: MTS cell viability assay, single agents; type: cell-based; details: Homo sapiens, NCI-H358, 72 h, read-out: IC50 (concentration of drug required to inhibit cell growth by 50%)
# Description: as §2
# A549 = test: MTS cell viability assay, single agents; type: cell-based; details: Homo sapiens, A549, 72 h, read-out: IC50 (concentration of drug required to inhibit cell growth by 50%)
# Description: as §2
# H226 = test: MTS cell viability assay, single agents; type: cell-based; details: Homo sapiens, NCI-H226, 72 h, read-out: IC50 (concentration of drug required to inhibit cell growth by 50%)
# Description: as §2
# H460 = test: MTS cell viability assay, single agents; type: cell-based; details: Homo sapiens, NCI-H460, 72 h, read-out: IC50 (concentration of drug required to inhibit cell growth by 50%)
# Description: as §2
# H23 = test: MTS cell viability assay, single agents; type: cell-based; details: Homo sapiens, NCI-H23, 72 h, read-out: IC50 (concentration of drug required to inhibit cell growth by 50%)
# Description: as §2
# H522 = test: MTS cell viability assay, single agents; type: cell-based; details: Homo sapiens, NCI-H522, 72 h, read-out: IC50 (concentration of drug required to inhibit cell growth by 50%)
# Description: as §2
SMILES,"antiproliferative activity (measured as tumor size), single agent [1]","antiproliferative activity (measured as tumor size), single agent [2]",cytotoxic effects against cultured NSCLC human cancer cell lines [3],IC50 (H358) [nM],IC50 (A549) [nM],IC50 (H226) [nM],IC50 (H460) [nM],IC50 (H23) [nM],IC50 (H522) [nM]
"[NH2][Pt]1([NH2])[O]C(=O)C2(CCC2)C(=O)[O]1 [Carboplatin, carboplatin]",antiproliferative activity,antiproliferative activity,essentially inactive,–,–,–,–,–,–
"C/C1=C/CC(/C(C)=C/c2csc(C)n2)OC(=O)C[C@H](O)C(C)(C)C(=O)[C@H](C)[C@@H](O)[C@@H](C)CCC1 (stereo partly drawn) [Epothilone D, epothilone D]",antiproliferative activity,antiproliferative activity,potent cytotoxic effects,40,40,50,33,37,40

# Source: patent publication US20050215604A1, “Combination therapies with epothilones and carboplatin” (Kosan Biosciences, Inc., priority 2004, published 2005)
